According to patent US11234982B2, “Methods for treating ocular surface pain” (NOVARTIS AG, priority 2019, dated 2022):
“Also recorded” adds a separate entry of the source.

Assays:
healthy volunteers = assay: First in human study Part 1: SAD, incidence of adverse events; format: in vivo; conditions: N = 6
Procedure: This example describes a first-in-human study of compound I conducted in healthy volunteers. A total of 54 subjects were administered to study medication. Part 1 of the first in human study administered single ascending doses of 0.15%, 1.5%, 2.5% w/v (1 drop) of compound I in an eye drop.
Safety assessments: Safety assessments consisted of collecting all adverse events (AEs), serious adverse events (SAEs), including systemic and ocular adverse events, along with their severity and relationship to study drug. Systemic safety assessments included regular monitoring of hematology, blood chemistry and urinalysis performed at study center and regular assessments of physical examination, vital signs (systolic and diastolic blood pressure, pulse rate, and body temperature), ECG, pregnancy and assessments of fertility and hand immersion test at 49° C. during MAD part. Ocular safety assessments included early treatment diabetic retinopathy study (ETDRS) visual acuity, intraocular pressure, slit-lamp biomicroscopy, corneal staining and dilated fundus exam.
Inclusion Criteria: • Written informed consent was obtained before any assessment was performed. • Healthy male and female subjects aged 18 to 50 years (inclusive), and in good health as determined by past medical history, physical examination, vital signs, ECG, and laboratory tests at Screening. • At Screening, and Baseline, vital signs (systolic and diastolic blood pressure (BP) and pulse rate) were assessed in the sitting position after the subject had rested for at least 3 minutes and again after 3 minutes in the standing position. […] BMI=Body weight (kg)/[Height (m)]^2 • Subjects who were able to communicate well with the Investigator, to understand and comply with the requirements of the study. • For Part 3, subjects Baseline levels of eye sensitivity were to be in the range of 50 to 60 mm (inclusive) as measured by the Cochet-Bonnet esthesiometer.
History of any chronic eye disease other than refractive error, incipient cataract, strabismic amblyopia, or anisometropic amblyopia. Subjects with a history of acute eye disease (such as infection, corneal abrasion or allergy) within the past 6 months from Screening were eligible if the disease was not active. • Any currently active ocular condition that required use of topical eye drops. • Subjects using continuous positive airway pressure or other sleep apnea devices.

[1] = test system: patients undergoing photorefractive keratectomy (PRK) surgery; assay: PRK study: ocular safety assessments and vital signs; format: in vivo, human
Procedure: The study was a proof of concept, double-masked, randomized, vehicle-controlled study of compound I administered as eye drops in addition to standard of care treatment in patients after PRK surgery. PRK surgery was performed as an outpatient procedure under topical anesthesia with removal of the corneal epithelium to expose the stroma for the laser ablation. Compound I dosing was as single eye drop of 2.5% (25 mg/ml, 0.925 mg/drop), administered four times daily (every six hours) in one eye from immediate post-op (time 0) to last dose at 72 hours.
Adverse events and serious adverse events included an assessment of both systemic and ocular assessments. Systemic safety assessments included regular assessments of height and weight, vital signs, reporting medication errors including misuse/abuse, pregnancy reporting and early phase safety monitoring. The misuse/abuse, pregnancy reporting and early phase safety monitoring were not assessed for the study. Ocular safety assessments included the following: • Best-corrected visual acuity (BCVA) and uncorrected visual acuity (UCVA): Was measured at each visit using an ETDRS visual acuity chart at 4 meters (13 feet) or 1 meter (for patients that cannot read the 4 meter chart). The BCVA scoring was done based on the number of correctly read letters plus 30. If visual acuity was so poor that the patient could not read any of the largest letters at 1 meter, count fingers and hand movement vision and light perception was tested. • Intraocular Pressure (TOP): IOP measurements were conducted with applanation tonometry or Tonopen. • Dilated fundus exam: The dilated fundus examination included ophthalmoscopic assessments of the vitreous, retina/macula/choroid, and optic nerve. Evaluations for retinal tear/detachment, retinal hemorrhage, vitreous hemorrhage density, vitreous haze grading and abnormal findings were done and scored according to grading criteria. • Ocular hyperemia: Conjunctival redness of the bulbar conjunctiva in each eye at the slit lamp according to the McMonnies redness scale was graded. […] By adjusting the calibrated slit beam width and height, the maximum horizontal (wound width) and vertical dimensions (wound height) of the surgical epithelial wound was estimated. The evaluation was performed until wound closure and report of wound size as 0 horizontal and 0 vertical dimensions. • Slit-lamp biomicroscopy: Ocular signs (eyelids/conjunctiva, cornea, lens, and iris/anterior chamber) was assessed in both eyes by slit lamp biomicroscopy according to the grading criteria. • Blink rate: A blink was defined as a bilateral paroxysmal closure of the eyelids (duration<1 second) in the absence of a provoking external stimulus. Each blink assessment lasted for 2 min (or as close to 2 minutes as possible with minimum time 1 minute) and the obtained blink rate was averaged to calculate blink rate in blinks/min. • Tear production (Schirmer's test without anesthesia): The test was performed without anesthetic in both eyes simultaneously. Tear secretion was measured in millimeters of the length of strip wetted by tears. […] The strip was wetted with 1 drop of sterile saline and flicked to remove excess saline. The patient blinked several times to ensure dispersion of the dye throughout the tear film prior to grading on a scale of 0-3 (0=Normal, No staining; 1=Mild, Superficial stippling micropunctate staining; 2=Moderate, Macropunctate staining with some coalescent areas and 3=Severe, Numerous coalescent macropunctate areas and/or patches) for each of 5 zones (central plus 4 quadrants).

[2] = across the scheduled time points

## CC(C)c1nc2cc(O)ccc2c(=O)n1-c1ccc(C#N)cc1 [Compound I, 4-(7-hydroxy-2-isopropyl-4-oxo-4H-quinazolin-3-yl)-benzonitrile]
Healthy volunteers; 0.15% 1 drop
  AEs leading to of study: nE: 0
  AEs leading to of study: nS (%): 0 (0.0) nS (%)
  AEs of Mild severity: nE: 3
  AEs of Mild severity: nS (%): 1 (16.7) nS (%)
  AEs of Moderate severity: nE: 0
  AEs of Moderate severity: nS (%): 0 (0.0) nS (%)
  AEs, Subjects with AEs: nE (AE events): 3
  AEs, Subjects with AEs: nS (%) (subjects with at least one AE): 1 (16.7) nS (%)
  Serious AEs: nE: 0
  Serious AEs: nS (%): 0 (0.0) nS (%)
  Study drug-related AEs: nE: 3
  Study drug-related AEs: nS (%): 1 (16.7) nS (%)
  Study-drug related AEs leading to discontinuation of study: nE: 0
  Study-drug related AEs leading to discontinuation of study: nS (%): 0 (0.0) nS (%)
Healthy volunteers; 1.5% 1 drop
  AEs leading to of study: nE: 0
  AEs leading to of study: nS (%): 0 (0.0) nS (%)
  AEs of Mild severity: nE: 3
  AEs of Mild severity: nS (%): 2 (33.3) nS (%)
  AEs of Moderate severity: nE: 0
  AEs of Moderate severity: nS (%): 0 (0.0) nS (%)
  AEs, Subjects with AEs: nE (AE events): 3
  AEs, Subjects with AEs: nS (%) (subjects with at least one AE): 2 (33.3) nS (%)
  Serious AEs: nE: 0
  Serious AEs: nS (%): 0 (0.0) nS (%)
  Study drug-related AEs: nE: 3
  Study drug-related AEs: nS (%): 2 (33.3) nS (%)
  Study-drug related AEs leading to discontinuation of study: nE: 0
  Study-drug related AEs leading to discontinuation of study: nS (%): 0 (0.0) nS (%)
Healthy volunteers; 2.5% 1 drop
  AEs leading to of study: nE: 0
  AEs leading to of study: nS (%): 0 (0.0) nS (%)
  AEs of Mild severity: nE: 0
  AEs of Mild severity: nS (%): 0 (0.0) nS (%)
  AEs of Moderate severity: nE: 0
  AEs of Moderate severity: nS (%): 0 (0.0) nS (%)
  AEs, Subjects with AEs: nE (AE events): 0
  AEs, Subjects with AEs: nS (%) (subjects with at least one AE): 0 (0.0) nS (%)
  Serious AEs: nE: 0
  Serious AEs: nS (%): 0 (0.0) nS (%)
  Study drug-related AEs: nE: 0
  Study drug-related AEs: nS (%): 0 (0.0) nS (%)
  Study-drug related AEs leading to discontinuation of study: nE: 0
  Study-drug related AEs leading to discontinuation of study: nS (%): 0 (0.0) nS (%)
[1]; Day 2 postoperatively (24 hours after PRK surgery)
  Ocular hyperemia (McMonnies scale) grade 4, compound I vs Vehicle treated eyes: less grade 4 hyperemia (all quadrants); also recorded: Fewer compound I-treated eyes showed severe conjunctival hyperemia
[1]; Day 3 (48 hours post-operative)
  Ocular hyperemia (McMonnies scale) grade 3, compound I vs Vehicle treated eyes: less grade 3 hyperemia
[1]; [2]
  Dilated fundus exam: No abnormal findings
  Slit-lamp biomicroscopy: aqueous flare and inflammatory cell grade, iris/anterior chamber, lens: No abnormalities were observed
[1]; after compound I administration
  Changes in BCVA, IOP, slit-lamp biomicroscopy, dilated eye exam, blink rate, tear production, corneal staining, vital signs compared to Vehicle: no clinically relevant changes
[1]; all patients during the study
  Vital sign parameters (blood pressures, pulse rate, body temperature): within the normal range
[1]; at the end of study
  Increase in mean IOP values compared to Baseline: < 5 mmHg
[1]; baseline, Day 8, EOS visit
  Corneal staining, compound I versus Vehicle: No clinical differences were observed
[1]; throughout the study
  Best-corrected visual acuity (BCVA) and uncorrected visual acuity (UCVA), compound I vs Vehicle-treated eyes: did not result in any trend or obvious difference
  Blink rate, compound I vs Vehicle treatment: no trend across the scheduled time points or obvious differences
  Intraocular pressure, compound I vs Vehicle-treated eyes: No trend across the scheduled time points or obvious differences
